Measured values reported in patent publication US20240246979A1, “cGAS INHIBITORS” (Eli Lilly and Company, priority 2022, published 2024).

Experiments:
cGAS [1] = target: T1, cGAS (Homo sapiens, UniProt Q8N884); experiment: Cellular assay to measure cGAS activity (IFNb AlphaLISA in THP1 cells stimulated by RDG-Adenovirus-GFP); assay type: cell-based; design: host or cells: THP1 cells differentiated with PMA and stimulated with RDG-Adenovirus-GFP; settings: PMA-differentiated THP1 cells, RDG-Adenovirus-GFP at 1000 MOI; inhibition of IFNb production as marker for cGAS activity
T1 sequence (Q8N884 whole entry): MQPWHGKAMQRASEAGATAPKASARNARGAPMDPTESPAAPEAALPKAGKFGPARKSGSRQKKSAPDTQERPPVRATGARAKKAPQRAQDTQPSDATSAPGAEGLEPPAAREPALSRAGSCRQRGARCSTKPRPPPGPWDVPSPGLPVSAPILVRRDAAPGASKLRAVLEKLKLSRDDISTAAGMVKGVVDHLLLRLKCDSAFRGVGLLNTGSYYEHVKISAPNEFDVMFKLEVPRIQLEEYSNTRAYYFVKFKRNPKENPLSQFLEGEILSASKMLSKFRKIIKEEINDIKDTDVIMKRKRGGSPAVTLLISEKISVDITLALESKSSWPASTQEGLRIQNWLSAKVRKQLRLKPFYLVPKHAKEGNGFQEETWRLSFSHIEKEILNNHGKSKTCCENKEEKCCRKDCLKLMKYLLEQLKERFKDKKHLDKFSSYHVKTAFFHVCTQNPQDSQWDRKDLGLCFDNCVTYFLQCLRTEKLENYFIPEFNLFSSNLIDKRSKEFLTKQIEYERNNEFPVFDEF
Procedure: Cellular assay to measure cGAS activity: Use THP1 cell line from ATCC to determine inhibition of cGAS activity by test compounds in human cells. Plate cells on 96-well plates at 0.2×10^6/well and differentiate with phorbol myristate acetate (PMA) at 37° C./5% CO2. After 24 hours, replace PMA containing media with media lacking PMA and further incubate overnight. Stimulate cells were then by RDG-Adenovirus-GFP (Vector Biolabs #1768) at 1000 MOI for 4 hours prior to the addition of test compounds. After overnight incubation, transfer 10 μL of the media from each well to a new plate for IFNb analysis as a marker for cGAS activity. Measure quantification of IFNb with an IFNb AlphaLISA Detection kit (Perkin Elmer AL3133F) by mixing the acceptor beads with the cell supernatant followed by the addition of the biotinylated antibody and donor beads. Measure the relative fluorescence signal produced from the interaction of the donor and acceptor beads by a PHERAStar AlphaLISA protocol and evaluate the inhibitory effect of a compound by plotting specific inhibition of IFNb production against log concentration of the test compound. Calculate IC50 values using a 4-parameter non-linear logistic equation (y=(S0+((SInf−S0)/(1+((qAC50/x)^nHill))))).

cGAS [2] = target: T1, cGAS; experiment: In vitro inhibition assay of cGAS activity (cGAMP production, RapidFire mass spectrometry); assay type: biochemical; design: Insert cDNA encoding full-length of human cGAS; His6; made in house; host or cells: E. coli BL21(DE3); settings: 10 nM recombinant human cGAS, 60 nM 75-bp dsDNA, 50 μM ATP, 50 μM GTP, 3 hrs
Procedure: Expression and Purification of Recombinant cGAS Protein: Insert cDNA encoding full-length of human cGAS into a modified bacterial expression vector containing an in-frame His6-tag. Induce the E. coli strain BL21(DE3) harboring the plasmid with 1 mM IPTG (Isopropyl β-D-1-thiogalactopyranoside) at 18° C. overnight. Purify the His6-tagged cGAS protein over HISpur Ni-NTA resin in the presence of benzonase and RNase followed by Superdex 200 size exclusion chromatography with storage buffer (50 mM Tris-HCl pH 7.5, 300 mM NaCl, 1 mM DTT, 10% glycerol).
In vitro inhibition assay of cGAS activity: Add a 5 μL mixture containing 10 mM Tris-Cl pH 7.5, 50 mM NaCl, 5 mM MgCl2, 1 mM DTT, 0.01% Triton X-100, 60 nM 75-bp dsDNA, 50 μM ATP, 50 μM GTP, 10 nM of recombinant human cGAS, and serial dilutions of a test compound in DMSO to a 384-well plate and incubate at ambient temperature for 3 hrs. Quench the reaction by the addition of 100 μL of stop solution containing 0.1% formic acid and 0.1 μM internal standard (3′3′-difluoro cGAMP). Measure the amount of cGAMP produced by RapidFire 365 mass spectrometry and evaluate inhibitory effect of a compound by plotting percent specific inhibition of cGAMP production against log concentration of the test compound. Calculate IC50 values using a 4-parameter non-linear logistic equation (y=(S0+((Sinf−S0)/(1+((qAC50/x)^nHill))))).

| SMILES | IC50 (cGAS [1]) [µM] | IC50 (cGAS [2]) [µM] |
| --- | --- | --- |
| C[C@H]1C(=O)NCCc2[nH]c3c(Cl)c(Cl)cc(CC#N)c3c21 (single isomer, unassigned) [Example 90] | 0.993 | 0.552 |
| C[C@@H]1C(=O)NCCc2c1c1c(NC(=O)CO)cc(Cl)c(Cl)c1n2C (single isomer, unassigned) [Example 92] | 0.259 | 0.0173 |
| C[C@@H]1C(=O)NCCc2c1c1c(NC(=O)CO)cc(Cl)c(Cl)c1n2C (single isomer, unassigned) [Example 93] | > 10 | 2.76 |
| C[C@H](O)C(=O)Nc1cc(Cl)c(Cl)c2c1c1c(n2C)CCNC(=O)[C@H]1C (single isomer, unassigned) [Example 94] | 0.663 | 0.0247 |
| C[C@H](O)C(=O)Nc1cc(Cl)c(Cl)c2c1c1c(n2C)CCNC(=O)[C@H]1C (single isomer, unassigned) [Example 95] | ≥ 10 | 7.58 |
| C[C@@H](O)CNc1cc(Cl)c(Cl)c2c1c1c(n2C)CCNC(=O)[C@@H]1C (single isomer, unassigned) [Example 98] | 2.18 | 0.0424 |
| C[C@@H](O)CNc1cc(Cl)c(Cl)c2c1c1c(n2C)CCNC(=O)[C@@H]1C (single isomer, unassigned) [Example 99] | > 10 | 1.64 |
| C[C@@H](O)CNc1cc(Cl)c(Cl)c2c1c1c(n2C)CCNC(=O)[C@@H]1C (single isomer, unassigned) [Example 100] | 1.13 | 0.0304 |
| C[C@@H](O)CNc1cc(Cl)c(Cl)c2c1c1c(n2C)CCNC(=O)[C@@H]1C (single isomer, unassigned) [Example 101] | > 10 | 1.26 |
| Cn1ncc(-c2cc(Cl)c(Cl)c3[nH]c4c(c23)CC(=O)NC[C@H]4CC(C)(C)O)n1 (single isomer, unassigned) [Example 103] | 0.398 | 0.0176 |
| Cn1ncc(-c2cc(Cl)c(Cl)c3[nH]c4c(c23)CC(=O)NC[C@H]4CC(C)(C)O)n1 (single isomer, unassigned) [Example 104] | 1.57 | 0.0422 |
| CC(C)(O)C[C@@H]1CNC(=O)Cc2c1[nH]c1c(Cl)c(Cl)cc(CC#N)c21 (single isomer, unassigned) [Example 106] | 0.861 | 0.188 |
| CC(C)(O)C[C@@H]1CNC(=O)Cc2c1[nH]c1c(Cl)c(Cl)cc(CC#N)c21 (single isomer, unassigned) [Example 107] | 0.649 | 0.0125 |
| CC(C)(O)C[C@@H]1CNC(=O)Cc2c1[nH]c1c(Cl)c(Cl)cc(OCC#N)c21 (single isomer, unassigned) [Example 108] | 0.676 | 0.0257 |
| CC(C)(O)C[C@@H]1CNC(=O)Cc2c1[nH]c1c(Cl)c(Cl)cc(OCC#N)c21 (single isomer, unassigned) [Example 109] | 1.86 | 0.159 |
| Cn1c2c(c3c(OCC#N)cc(Cl)c(Cl)c31)CC(=O)NC[C@H]2CC(C)(C)O (single isomer, unassigned) [Example 110, (R)-2-((7,8-Dichloro-5-(2-hydroxy-2-methylpropyl)-6-methyl-2-oxo-1,2,3,4,5,6-hexahydroazepino[4,5-b]indol-10-yl)oxy)acetonitrile or (S)-2-((7,8-Dichloro-5-(2-hydroxy-2-methylpropyl)-6-methyl-2-oxo-1,2,3,4,5,6-hexahydroazepino[4,5-b]indol-10-yl)oxy)acetonitrile] | 3.12 | 2.61 |
| Cn1c2c(c3c(OCC#N)cc(Cl)c(Cl)c31)CC(=O)NC[C@H]2CC(C)(C)O (single isomer, unassigned) [Example 111, (R)-2-((7,8-Dichloro-5-(2-hydroxy-2-methylpropyl)-6-methyl-2-oxo-1,2,3,4,5,6-hexahydroazepino[4,5-b]indol-10-yl)oxy)acetonitrile or (S)-2-((7,8-Dichloro-5-(2-hydroxy-2-methylpropyl)-6-methyl-2-oxo-1,2,3,4,5,6-hexahydroazepino[4,5-b]indol-10-yl)oxy)acetonitrile] | 0.231 | 0.0131 |
